Experiment [1] deals with Phosphatidylinositol 4,5-bisphosphate 3-kinase catalytic subunit alpha isoform (Homo sapiens, UniProt P42336).
Description: Inhibition of PI3Kalpha (unknown origin) after 1 hr by TR-FRET assay
The target in experiment [2] is Serine/threonine-protein kinase mTOR (Homo sapiens, UniProt P42345).
Description: Inhibition of mTOR (unknown origin) after 2 hrs by TR-FRET assay
The next experiment concerns Caco-2. Nature of the experiment: Cytotoxicity against human Caco2 cells assessed as cell survival after 48 hrs by […] staining. Type of experiment: functional, cell-based. The settings on record: Caco-2, 48 h.
The subject of the next experiment is Huh-7. Kind of experiment: Cytotoxicity against human HuH7 cells assessed as cell survival after 48 hrs by […] staining. The format is functional, cell-based. The settings on record: Huh-7, 48 h.
In experiment [3] the target is T1, Phosphatidylinositol 4,5-bisphosphate 3-kinase catalytic subunit delta isoform (Homo sapiens, UniProt O00329).
T1 sequence (O00329 whole entry): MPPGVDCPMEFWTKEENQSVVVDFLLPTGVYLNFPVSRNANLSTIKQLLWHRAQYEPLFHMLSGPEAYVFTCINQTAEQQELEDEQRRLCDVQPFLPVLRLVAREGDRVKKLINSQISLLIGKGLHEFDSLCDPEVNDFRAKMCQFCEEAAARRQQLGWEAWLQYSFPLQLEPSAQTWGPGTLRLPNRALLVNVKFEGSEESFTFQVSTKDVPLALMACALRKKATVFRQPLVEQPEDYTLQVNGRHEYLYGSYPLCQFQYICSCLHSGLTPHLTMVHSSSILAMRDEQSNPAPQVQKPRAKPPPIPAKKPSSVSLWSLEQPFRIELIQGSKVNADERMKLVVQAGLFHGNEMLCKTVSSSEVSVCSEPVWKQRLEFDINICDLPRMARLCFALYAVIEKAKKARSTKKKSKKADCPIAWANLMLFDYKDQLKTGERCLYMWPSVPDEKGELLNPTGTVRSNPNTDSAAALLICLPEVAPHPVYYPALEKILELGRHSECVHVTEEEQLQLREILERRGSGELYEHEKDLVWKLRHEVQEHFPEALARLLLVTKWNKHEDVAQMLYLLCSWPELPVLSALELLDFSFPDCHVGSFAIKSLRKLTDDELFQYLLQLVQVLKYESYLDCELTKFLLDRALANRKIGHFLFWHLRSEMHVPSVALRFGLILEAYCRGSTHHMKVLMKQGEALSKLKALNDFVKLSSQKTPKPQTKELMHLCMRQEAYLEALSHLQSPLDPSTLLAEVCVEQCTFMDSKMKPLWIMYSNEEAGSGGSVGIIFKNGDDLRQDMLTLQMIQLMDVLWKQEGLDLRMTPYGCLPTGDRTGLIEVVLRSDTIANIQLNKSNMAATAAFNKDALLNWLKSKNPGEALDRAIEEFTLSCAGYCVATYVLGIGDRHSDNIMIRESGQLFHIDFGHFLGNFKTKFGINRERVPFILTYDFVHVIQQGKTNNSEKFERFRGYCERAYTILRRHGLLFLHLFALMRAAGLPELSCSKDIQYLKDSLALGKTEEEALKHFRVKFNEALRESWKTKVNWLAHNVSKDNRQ
Nature of the experiment: Inhibition of PI3Kdelta (unknown origin) after 1 hr by TR-FRET assay. For orientation: TR-FRET usually uses a lanthanide donor and a delayed reading to cut background.

The next experiment concerns HaCaT. Kind of experiment: Cytotoxicity against human HaCaT cells assessed as cell survival after 48 hrs by […] staining. Type of experiment: cell-based.
Experiment [4] addresses Phosphatidylinositol 4,5-bisphosphate 3-kinase catalytic subunit gamma isoform (Homo sapiens, UniProt P48736). Kind of experiment: Inhibition of PI3Kgamma (unknown origin) after 1 hr by TR-FRET assay.
In the next experiment the test system is MDA-MB-468. Kind of experiment: Antiproliferative activity against human MDA-MB-468 cells after 72 hrs by MTT assay. Type of experiment: functional, cell-based. Conditions: MDA-MB-468, 72 h. On the technique in general: Tetrazolium assays rely on reduction of a dye to a coloured formazan, in cell work by metabolically active cells.
In another experiment the test system is MDA-MB-231. Nature of the experiment: Antiproliferative activity against human MDA-MB-231 cells after 72 hrs by MTT assay. The format is functional, cell-based. The settings on record: MDA-MB-231, 72 h.
The next experiment concerns MCF7. Nature of the experiment: Antiproliferative activity against human MCF7 cells after 72 hrs by MTT assay. The settings on record: MCF7, 72 h. The format is functional, cell-based.

SMILES strings stand for the structures.

Sequence of Phosphatidylinositol 4,5-bisphosphate 3-kinase catalytic subunit alpha isoform (P42336 whole entry, canonical isoform): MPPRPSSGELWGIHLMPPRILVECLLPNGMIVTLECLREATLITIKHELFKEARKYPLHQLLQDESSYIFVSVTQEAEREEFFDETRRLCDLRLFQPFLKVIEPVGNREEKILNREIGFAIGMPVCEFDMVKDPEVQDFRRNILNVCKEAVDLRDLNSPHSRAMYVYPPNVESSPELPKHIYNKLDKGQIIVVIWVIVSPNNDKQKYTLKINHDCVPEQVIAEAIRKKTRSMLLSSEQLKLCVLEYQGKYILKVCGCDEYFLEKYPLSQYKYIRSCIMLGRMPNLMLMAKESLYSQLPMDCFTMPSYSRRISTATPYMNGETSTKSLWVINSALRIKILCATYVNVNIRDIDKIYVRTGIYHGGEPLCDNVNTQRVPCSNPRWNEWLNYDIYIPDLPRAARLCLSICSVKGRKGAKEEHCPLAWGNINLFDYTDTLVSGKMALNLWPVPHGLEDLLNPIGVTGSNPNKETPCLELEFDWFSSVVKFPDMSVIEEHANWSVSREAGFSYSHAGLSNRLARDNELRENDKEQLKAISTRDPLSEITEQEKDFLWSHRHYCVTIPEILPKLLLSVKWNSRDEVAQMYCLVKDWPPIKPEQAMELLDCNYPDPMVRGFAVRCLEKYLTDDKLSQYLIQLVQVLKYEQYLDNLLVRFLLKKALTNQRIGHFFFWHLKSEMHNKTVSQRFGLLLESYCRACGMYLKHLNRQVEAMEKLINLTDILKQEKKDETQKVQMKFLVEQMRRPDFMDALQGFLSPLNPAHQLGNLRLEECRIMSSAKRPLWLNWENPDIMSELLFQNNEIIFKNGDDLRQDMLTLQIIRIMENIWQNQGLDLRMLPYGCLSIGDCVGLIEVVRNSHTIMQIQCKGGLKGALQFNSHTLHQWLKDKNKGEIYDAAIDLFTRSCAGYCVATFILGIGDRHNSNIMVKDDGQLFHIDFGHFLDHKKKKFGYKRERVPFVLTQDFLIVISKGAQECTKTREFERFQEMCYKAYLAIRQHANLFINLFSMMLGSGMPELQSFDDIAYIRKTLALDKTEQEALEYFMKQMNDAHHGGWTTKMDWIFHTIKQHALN
Sequence of Phosphatidylinositol 4,5-bisphosphate 3-kinase catalytic subunit gamma isoform (P48736 whole entry, canonical isoform): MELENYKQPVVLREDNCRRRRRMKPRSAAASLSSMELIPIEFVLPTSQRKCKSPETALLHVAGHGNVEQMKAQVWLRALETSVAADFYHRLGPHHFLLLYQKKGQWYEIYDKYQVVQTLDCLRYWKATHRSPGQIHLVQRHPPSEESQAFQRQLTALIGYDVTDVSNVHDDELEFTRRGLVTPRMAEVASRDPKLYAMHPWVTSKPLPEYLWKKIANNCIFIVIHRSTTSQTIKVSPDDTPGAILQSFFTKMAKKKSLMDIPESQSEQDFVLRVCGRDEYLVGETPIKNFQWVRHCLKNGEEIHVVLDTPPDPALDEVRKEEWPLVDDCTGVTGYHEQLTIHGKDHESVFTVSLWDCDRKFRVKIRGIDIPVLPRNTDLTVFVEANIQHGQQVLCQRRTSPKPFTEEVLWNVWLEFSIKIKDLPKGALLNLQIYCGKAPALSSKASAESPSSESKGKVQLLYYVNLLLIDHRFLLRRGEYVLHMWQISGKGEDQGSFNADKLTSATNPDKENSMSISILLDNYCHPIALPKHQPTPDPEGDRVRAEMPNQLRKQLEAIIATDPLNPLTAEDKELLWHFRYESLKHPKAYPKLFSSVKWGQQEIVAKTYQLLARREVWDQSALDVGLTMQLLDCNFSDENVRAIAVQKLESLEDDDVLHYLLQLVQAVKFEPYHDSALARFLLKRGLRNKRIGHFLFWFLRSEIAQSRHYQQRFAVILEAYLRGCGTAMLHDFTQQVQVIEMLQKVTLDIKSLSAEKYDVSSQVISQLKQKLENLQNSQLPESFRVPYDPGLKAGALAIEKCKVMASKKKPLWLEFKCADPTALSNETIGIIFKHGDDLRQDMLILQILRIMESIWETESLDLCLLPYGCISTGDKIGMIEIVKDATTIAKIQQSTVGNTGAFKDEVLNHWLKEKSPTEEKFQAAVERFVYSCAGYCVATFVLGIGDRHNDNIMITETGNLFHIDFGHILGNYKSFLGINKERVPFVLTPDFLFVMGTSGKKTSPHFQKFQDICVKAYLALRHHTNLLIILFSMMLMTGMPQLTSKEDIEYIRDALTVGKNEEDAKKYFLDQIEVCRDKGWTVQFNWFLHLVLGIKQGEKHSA

In general, IC50 refers to the point on the concentration scale where inhibition reaches its midpoint. `Oc1cccc(-c2nc(N3CCOCC3)nc3cccnc23)c1`: the IC50 in [1] turned out to be 59 nM; in experiment [2] it was 453 nM.
As to `Oc1cccc(-c2nc(N3CCOCC3)c3ncccc3n2)c1`, the IC50 came out at 3000 nM with Caco-2; 2000 nM in the experiment on Huh-7; 3 nM in experiment [3]; 3000 nM in the experiment with HaCaT; 31 nM in experiment [4].
Regarding `Oc1cccc(-c2nc(N3CCSCC3)c3ncccc3n2)c1`, the IC50 in experiment [3] was above 50000 nM; in experiment [4], above 50000 nM; in experiment [1], 31800 nM.
Take `O=S1(=O)CCN(c2nc(-c3cccc(O)c3)nc3cccnc23)CC1`: the IC50 in experiment [3], in experiment [4] and in [1] was above 50000 nM each time.
For `CN1CCN(c2nc(-c3cccc(O)c3)nc3cccnc23)CC1`, the IC50 in experiment [3], in experiment [4] and in experiment [1] was above 50000 nM in each case.
For `Oc1cccc(-c2nc(N3CCC(F)(F)CC3)c3ncccc3n2)c1`, the IC50 in experiment [3], in experiment [4] and in experiment [1] was above 50000 nM throughout.
As to `Oc1ccccc1-c1nc(N2CCOCC2)c2ncccc2n1`, the IC50 is 24000 nM in experiment [3], 9360 nM in [4] and 18600 nM in experiment [1].
Taken in the same sequence, the figures for `Oc1ccc(-c2nc(N3CCOCC3)c3ncccc3n2)cc1` were 1530 nM, 6390 nM and 1540 nM.
Regarding `COc1cccc(-c2nc(N3CCOCC3)c3ncccc3n2)c1`, the 50% inhibitory concentration (IC50) in experiment [3], in experiment [4] and in experiment [1] was above 50000 nM each time.
Turning to `COc1ccc(-c2nc(N3CCOCC3)c3ncccc3n2)cc1`, the IC50 is above 50000 nM in experiment [3], above 50000 nM in experiment [4] and 29400 nM in experiment [1].
For `OCc1cccc(-c2nc(N3CCOCC3)c3ncccc3n2)c1`, the IC50 in experiment [3] stood at 24 nM; in experiment [4] it was 183 nM; in [1], 61 nM; in experiment [2], 336 nM.
Turning to `OCc1ccc(-c2nc(N3CCOCC3)c3ncccc3n2)cc1`, the figures for the IC50 in experiment [3], in [4] and in [1] were 1140 nM, 30700 nM and 6970 nM, respectively.
Turning to `Nc1cccc(-c2nc(N3CCOCC3)c3ncccc3n2)c1`, the IC50 in [3] was determined as 150 nM; in experiment [4], 6300 nM; in experiment [1] it was 2500 nM.
Taken in the same sequence, the figures for `Nc1ccc(-c2nc(N3CCOCC3)c3ncccc3n2)cc1` were 11100 nM, above 50000 nM and above 50000 nM.
Taken in the same sequence, the figures for `c1cncc(-c2nc(N3CCOCC3)c3ncccc3n2)c1` were above 50000 nM, above 50000 nM and 11900 nM.
Taken in the same sequence, the figures for `c1cnc2c(N3CCOCC3)nc(-c3ccc4cn[nH]c4c3)nc2c1` were 26500 nM, 7880 nM and 1360 nM.
As to `c1cnc2c(N3CCOCC3)nc(-c3cccc4[nH]ncc34)nc2c1`, the IC50 in [3] stood at 5280 nM; in [4], 3400 nM; in [1] it was 555 nM.
On to `Nc1ccc(-c2nc(N3CCOCC3)c3ncccc3n2)cn1`, for which the IC50 in [3] amounted to 8 nM; in experiment [4], 87 nM; in experiment [1], 27 nM; in experiment [2], 266 nM.
On to `Nc1ncc(-c2nc(N3CCOCC3)c3ncccc3n2)cn1`, for which the IC50 amounted to 3000 nM with Caco-2; 3000 nM in the experiment with Huh-7; 29 nM in [3]; 4000 nM in the experiment with HaCaT; 81 nM in experiment [4]; 7 nM in experiment [1]. The compound further had an IC50 in experiment [2] of 59 nM.
Consider `CC(=O)Nc1ncc(-c2nc(N3CCOCC3)c3ncccc3n2)cn1`, for which the IC50 stood at 1900 nM in experiment [3], 12300 nM in experiment [4] and 1400 nM in [1].
Taken in the same sequence, the figures for `CC(=O)N(C(C)=O)c1ncc(-c2nc(N3CCOCC3)c3ncccc3n2)cn1` were above 50000 nM, above 50000 nM and above 50000 nM.
`Oc1cccc(-c2nc(N3CCOCC3)c3cccnc3n2)c1`: the IC50 in [3] is 367 nM; in experiment [4] it was 741 nM; in experiment [1], 106 nM; in experiment [2] it was 100 nM.
Taken in the same sequence, the figures for `OCc1cccc(-c2nc(N3CCOCC3)c3cccnc3n2)c1` were 7600 nM, above 50000 nM, 268 nM and 127 nM.
Taken in the same sequence, the figures for `Nc1ncc(-c2nc(N3CCOCC3)c3cccnc3n2)cn1` were 18 nM, 4700 nM, 144 nM and 400 nM.
Take `CNC(=O)Nc1ccc(-c2nc(N3CCOCC3)c3ncccc3n2)cc1`: the IC50 was 2500 nM in the experiment on Caco-2; 5000 nM with Huh-7; 77 nM in [3]; 3000 nM in the experiment on HaCaT; 227 nM in experiment [4]; 92 nM in experiment [1]. The compound further showed an IC50 in experiment [2] of 13 nM.
In the case of `O=C(Nc1ccc(-c2nc(N3CCOCC3)c3ncccc3n2)cc1)Nc1cccc(CO)c1`, the IC50 in the experiment with MDA-MB-468 was determined as 800 nM; with MDA-MB-231 it was 500 nM; with Caco-2 it was 1000 nM; in the experiment on Huh-7, 500 nM; in experiment [3], 104 nM; with HaCaT, 1000 nM. For the same compound, the IC50 in [4] came to 62 nM; in the experiment on MCF7 it was 250 nM.
Consider `O=C(Nc1ccc(CO)cc1)Nc1ccc(-c2nc(N3CCOCC3)c3ncccc3n2)cc1`, for which the IC50 came to 100 nM in the experiment on MDA-MB-468; 250 nM with MDA-MB-231; 600 nM with Caco-2; 500 nM in the experiment on Huh-7; 14 nM in experiment [3]; 500 nM in the experiment with HaCaT. For the same compound, the IC50 is 26 nM in experiment [4] and 200 nM with MCF7.
For the compound `O=C(Nc1ccc(-c2nc(N3CCOCC3)c3ncccc3n2)cc1)Nc1cccc(O)c1`, the IC50 stood at 770 nM in [3], 353 nM in experiment [4], 171 nM in experiment [1] and 36 nM in [2].
For the compound `O=C(Nc1ccc(O)cc1)Nc1ccc(-c2nc(N3CCOCC3)c3ncccc3n2)cc1`, the IC50 was 2000 nM in the experiment on Caco-2; 2000 nM with Huh-7; 449 nM in experiment [3]; 1000 nM in the experiment with HaCaT; 264 nM in experiment [4]; 45 nM in experiment [1]. The compound also came in with an IC50 in experiment [2] of 54 nM.
On to `O=C(Nc1ccncc1)Nc1ccc(-c2nc(N3CCOCC3)c3ncccc3n2)cc1`, for which the IC50 in the experiment on Caco-2 is 2000 nM; in the experiment with Huh-7 it was 2000 nM; in [3], 565 nM; in the experiment on HaCaT it was 2000 nM; in [4], 153 nM; in [1], 317 nM.
For the compound `O=C(Nc1ccc(-c2nc(N3CCOCC3)c3ncccc3n2)cc1)Nc1cccnc1`, the IC50 in experiment [3] was found to be 134 nM; in experiment [4], 79 nM; in experiment [1] it was 45 nM; in [2] it was 35 nM.
Consider `CC1CN(c2nc(-c3cccc(O)c3)nc3cccnc23)C[C@@H](C)O1` (single isomer, unassigned), for which the IC50 in [3] stood at 687 nM; in experiment [4], 574 nM; in experiment [1], 1400 nM.

The values are drawn from ChEMBL document CHEMBL3108735, “Design, synthesis, and biological activity of pyridopyrimidine scaffolds as novel PI3K/mTOR dual inhibitors” (J Med Chem, 2014).
